Values quoted from earlier work in patent US20110212192A1, “INGESTIBLES CONTAINING SUGAR AND CINNAMON OR GINSENG” (ALLEGIANCE EQUITY CORPORATION, priority 2008, published 2011).

Assays:
Settings in all cases: immunoblotting; mouse 3T3-L1 adipocytes
insulin receptor (IR) = test system: insulin receptor (IR)
[1] = test system: glucose transporter 4 (GLUT4)
tristetraprolin (TTP) = test system: tristetraprolin (TTP)

level of insulin receptor (IR) protein (insulin receptor (IR)): increased
Substance: insulin
level of glucose transporter 4 (GLUT4) protein [1]: increased | level of tristetraprolin (TTP) protein (tristetraprolin (TTP)): increased
